Assay results from patent publication US11129827B2 (priority 2017, dated 2021).
Read-outs that look alike come from different tables or passages of the source.

Legend:
FAAH = FAAH (Homo sapiens (Human), UniProt O00519); test: biochemical; conditions: for inhibition at 1 µM: read-out: FAAH (human) % inh. 1 μM
MAGL = MAGL (Homo sapiens (Human), UniProt Q99685); test: biochemical; conditions: for inhibition at 1 µM: read-out: MAGL (human) % inh. 1 μM

Structure (SMILES) | inhibition at 1 µM (FAAH) | IC50 (FAAH; read-out: FAAH (human) IC50) | IC50 (MAGL) | inhibition at 1 µM (MAGL) | IC50 (MAGL; read-out: MAGL (human) IC50) | IC50 (FAAH)
CC1CCCN1c1ccc(CN2CCN(C(=O)Oc3cncc(C(N)=O)c3)CC2)c(OC(F)(F)F)c1 (stereo not drawn) [Example 17, 5-Carbamoylpyridin-3-yl 4-(4-(2-methylpyrrolidin-1-yl)-2-(trifluoromethoxy)benzyl)piperazine-1-carboxylate] | > 75% | 100 to 1000 nM | < 100 nM | > 75% |  | 
Cc1ncc(C#N)cc1OC(=O)N1CCN(Cc2cccc(C(F)(F)F)c2C)C[C@H]1C [Example 21, 5-Cyano-2-methylpyridin-3-yl (R)-2-methyl-4-(2-methyl-3-(trifluoromethyl)benzyl)piperazine-1-carboxylate] | > 75% | 100 to 1000 nM | 1000 to 10000 nM | 25 to 50% |  | 
CC(C)Oc1cccc(CN2CC3(CCN(C(=O)Oc4cncc(C(F)(F)F)c4)CC3)C2)c1 [Example 22, 5-(Trifluoromethyl)pyridin-3-yl 2-(3-isopropoxybenzyl)-2,7-diazaspiro[3.5]nonane-7-carboxylate] | 50 to 75% |  |  | 25 to 50% |  | 
O=C(Oc1cncc(C(F)(F)F)c1)N1CCC2(CC1)CN(Cc1cc(Cl)cc(Oc3nc4ccccc4s3)c1)C2 [Example 23, 5-(Trifluoromethyl)pyridin-3-yl 2-(3-(benzo[d]thiazol-2-yloxy)-5-chlorobenzyl)-2,7-diazaspiro[3.5]nonane-7-carboxylate] | > 75% | < 100 nM |  | > 75% | < 100 nM | 
CC(C)Oc1cc(Cl)cc(CN2CC3(CCN(C(=O)Oc4cncc(C(F)(F)F)c4)CC3)C2)c1 [Example 24, 5-(Trifluoromethyl)pyridin-3-yl 2-(3-chloro-5-isopropoxybenzyl)-2,7-diazaspiro[3.5]nonane-7-carboxylate] | > 75% |  |  | > 75% |  | 
O=C(Oc1cncc(C(F)(F)F)c1)N1CCC2(CC1)CC(Oc1cc(Cl)cc(Cl)c1)C2 [Example 25, 5-(Trifluoromethyl)pyridin-3-yl 2-(3,5-dichlorophenoxy)-7-azaspiro[3.5]nonane-7-carboxylate] | > 75% | 100 to 1000 nM | < 100 nM | > 75% |  | 
O=C(Oc1cncc(C(F)(F)F)c1)N1CCC2(CC1)CC(Oc1cccc(C(=O)N3CCCC3)c1)C2 [Example 26, 5-(Trifluoromethyl)pyridin-3-yl 2-(3-(pyrrolidine-1-carbonyl)phenoxy)-7-azaspiro[3.5]nonane-7-carboxylate] | > 75% | 100 to 1000 nM | < 100 nM | > 75% |  | 
O=C(Oc1cncc(C(F)(F)F)c1)N1CCC2(CC1)CC(Oc1cc(Cl)ccc1Cl)C2 [Example 27, 5-(Trifluoromethyl)pyridin-3-yl 2-(2,5-dichlorophenoxy)-7-azaspiro[3.5]nonane-7-carboxylate] | > 75% |  |  | > 75% |  | 
O=C(Oc1cncc(C(F)(F)F)c1)N1CCC2(CC1)CC(Oc1ccc(-c3ccccc3)cc1)C2 [Example 28, 5-(Trifluoromethyl)pyridin-3-yl 2-([1,1′-biphenyl]-4-yloxy)-7-azaspiro[3.5]nonane-7-carboxylate] | > 75% | < 100 nM |  | > 75% | < 100 nM | 
O=C(Oc1cncc(C(F)(F)F)c1)N1CCC2(CC1)CC(Oc1cccc(COc3ccc(Cl)cc3)c1)C2 [Example 29, 5-(Trifluoromethyl)pyridin-3-yl 2-(3-((4-chlorophenoxy)methyl)phenoxy)-7-azaspiro[3.5]nonane-7-carboxylate] | > 75% |  |  | > 75% | 100 to 1000 nM | < 100 nM
O=C(Oc1cncc(C(F)(F)F)c1)N1CCC2(CC1)CN(Cc1ccc(Oc3ccc(Cl)cc3)cc1)C2 [Example 30, 5-(Trifluoromethyl)pyridin-3-yl 2-(4-(4-chlorophenoxy)benzyl)-2,7-diazaspiro[3.5]nonane-7-carboxylate] |  |  |  |  | 100 to 1000 nM | 1000 to 10000 nM
O=C(Oc1cncc(C(F)(F)F)c1)N1CCC2(CC1)CN(Cc1cccc(Oc3ccc(Cl)cc3)c1)C2 [Example 31, 5-(Trifluoromethyl)pyridin-3-yl 2-(3-(4-chlorophenoxy)benzyl)-2,7-diazaspiro[3.5]nonane-7-carboxylate] |  |  |  |  | 100 to 1000 nM | < 100 nM
O=C(Oc1cncc(C(F)(F)F)c1)N1CCC2(CC1)CN(Cc1cccc(Oc3ccnnc3)c1)C2 [Example 33, 5-(Trifluoromethyl)pyridin-3-yl 2-(3-(pyridazin-4-yloxy)benzyl)-2,7-diazaspiro[3.5]nonane-7-carboxylate] | 25 to 50% |  |  | 50 to 75% |  | 
O=C(Oc1cncc(C(F)(F)F)c1)N1CCC2(CC1)CN(Cc1ccc(Oc3cncnc3)cc1)C2 [Example 34, 5-(Trifluoromethyl)pyridin-3-yl 2-(4-(pyrimidin-5-yloxy)benzyl)-2,7-diazaspiro[3.5]nonane-7-carboxylate] |  |  |  |  | 100 to 1000 nM | 1000 to 10000 nM
O=C(Oc1cncc(C(F)(F)F)c1)N1CCC2(CC1)CN(Cc1cccc(Oc3cc(Cl)cc(Cl)c3)c1)C2 [Example 35, 5-(Trifluoromethyl)pyridin-3-yl 2-(3-(3,5-dichlorophenoxy)benzyl)-2,7-diazaspiro[3.5]nonane-7-carboxylate] | > 75% |  |  | > 75% |  | 
O=C(Oc1cncc(C(F)(F)F)c1)N1CCC2(CC1)CN(Cc1cccc(Oc3ccc(C(F)(F)F)cn3)c1)C2 [Example 37, 5-(Trifluoromethyl)pyridin-3-yl 2-(3-((5-(trifluoromethyl)pyridin-2-yl)oxy)benzyl)-2,7-diazaspiro[3.5]nonane-7-carboxylate] | > 75% |  |  | > 75% |  | 
O=C(Oc1cncc(C(F)(F)F)c1)N1CCC2(CC1)CN(Cc1cccc(Oc3ccc(C(F)(F)F)nc3)c1)C2 [Example 39, 5-(Trifluoromethyl)pyridin-3-yl 2-(3-((6-(trifluoromethyl)pyridin-3-yl)oxy)benzyl)-2,7-diazaspiro[3.5]nonane-7-carboxylate] | > 75% | 100 to 1000 nM |  | > 75% | 100 to 1000 nM | 
O=C(Oc1cncc(C(F)(F)F)c1)N1CCC2(CC1)CN(Cc1cccc(Oc3cccc(Cl)c3)c1Cl)C2 [Example 40, 5-(Trifluoromethyl)pyridin-3-yl 2-(2-chloro-3-(3-chlorophenoxy)benzyl)-2,7-diazaspiro[3.5]nonane-7-carboxylate] | > 75% | 100 to 1000 nM | < 100 nM | > 75% |  | 
O=C(Oc1cncc(C(F)(F)F)c1)N1CCC2(CC1)CN(Cc1cccc(Oc3ccccc3)c1Cl)C2 [Example 41, 5-(Trifluoromethyl)pyridin-3-yl 2-(2-chloro-3-phenoxybenzyl)-2,7-diazaspiro[3.5]nonane-7-carboxylate] | > 75% |  |  | > 75% |  | 
O=C(Oc1cncc(C(F)(F)F)c1)N1CCN(Cc2cc(Cl)ccc2C(F)(F)F)CC1 [Example 44, 5-(Trifluoromethyl)pyridin-3-yl 4-(5-chloro-2-(trifluoromethyl)benzyl)piperazine-1-carboxylate] | > 75% | 100 to 1000 nM |  | > 75% | 100 to 1000 nM | 
